Data: US8258309B2, “Azapeptide derivatives” (priority 2007, dated 2012)

Experiments:
in vivo = conditions: chimpanzee, po; for concentration detected intact in urine: 24 h; for concentration at 24 h: concentration detected intact in urine
Experimental: (§1) Four chimps (two male and two female) were used in this study and were fasted overnight prior to administration of the compound solution. Animals were sedated with ketamine and/or telazol prior to dosing. Intravenous dosing was achieved by IV infusion over 30 minutes.
(§2) Approximately 4.5 mL of blood was collected into vacutainer tubes with sodium heparin as an anticoagulant at 0 (preinfusion), 15 min., 29.5 min (immediately before the end of the infusion), and then at 6, 15, 30, and 45 minutes, and 1, 2, 4, 6, 8, 10, 12, 24 hours after the infusion is stopped. A similar procedure was used to collect blood after oral dosing with samples taken at 0 (predose), 15, and 30 minutes, and at 1, 1.5, 2, 4, 6, 8, 10, 12, 24 hours postdose. Following sample collection, the vacutainer tubes were rocked by hand several times to insure adequate mixing. Blood samples were placed immediately on wet ice and centrifuged within 1 hour from time of collection. Following centrifugation, the resulting plasma was stored frozen at −70° C. until analysis. The results are summarized in FIGS. 4 and 5 and tables 6 and 7.
Run B: Same as Run A, except the dose was 150 mg orally of each of atazanavir and compounds 114 and 120, and the vehicle was 10 percent ethanol, 40 percent polypropylglycol in 2.5 percent citric acid.

HIV-1RF = assay: HIV anti-viral activity in CEM-SS cells infected with HIV-1 (XTT); format: cell-based; conditions: for EC50: Human immunodeficiency virus 1, CEM-SS
Experimental: The HIV antiviral activity of compound of the present invention was tested in CEM-SS cells infected with HIV-1. CEM-SS cells were passaged in T-75 flasks in RPMI 1640 medium supplemented with 10% heat inactivated fetal bovine serum, 2 mmol/L L-glutamine, 100 U/mL penicillin and 100 flg/mL streptomycin prior to use in the antiviral assay. On the day preceding the assay, the cells were split 1:2 to assure they were in an exponential growth phase at the time of infection. Total cell and viability quantification was performed using a hemocytometer and Trypan Blue dye exclusion. Cell viability was greater than 95% for the cells to be utilized in the assay. The cells were resuspended at 5×10^4 cells per mL in tissue culture medium and added to the drug-containing microtiter plates in a volume of 50 μL.
The virus used for the assay was the lymphocyte-tropic virus strain HIV-IRF. The virus was obtained from the NIH AIDS Research and Reference Reagent Program and stock virus pools were produced in CEM-SS cells. A pre-titered aliquot of virus was removed from the freezer (−80° C.) and allowed to thaw slowly to room temperature in a biological safety cabinet. Virus was resuspended and diluted into tissue culture medium such that the amount of virus added to each well in a volume of 50 μL was the amount determined to yield 85 to 95% cell killing at 6 days post-infection.
Each plate contains cell control wells (cells only), virus control wells (cells plus virus), compound toxicity wells (cells plus compound only), compound colorimetric control wells (compound only) as well as experimental wells (compound plus cells plus virus). Samples were tested in triplicate with eleven half-log dilutions per compound starting at 0.1 μM of compound. Compounds 104, 120 and 122 were tested, as was atazanavir and AZT. […]
Following incubation at 37° C. in a 5% CO2 incubator, the test plates were stained with the tetrazolium dye XTT (2,3-bis(2-methoxy-4-nitro-5sulfophenyl)-5-[(phenylamino)carbonyl]-2H-tetrazolium hydroxide). XTT-tetrazolium was metabolized by the mitochondrial enzymes of metabolically active cells to a soluble formazan product, allowing rapid quantitative analysis of the inhibition of HIV induced cell killing by anti-HIV test substances. XTT solution was prepared daily as a stock of 1 mg/mL in RPMI 1640. Phenazine methosulfate (PMS) solution was prepared at 0.15 mg/mL in PBS and stored in the dark at −20° C. XTT/PMS stock was prepared immediately before use by adding 40 μL of PMS per mL of XTT solution. Fifty microliters of XTT/PMS was added to each well of the plate and the plate was reincubated for 4 hours at 37° C. Plates were sealed with adhesive plate sealers and shaken gently or inverted several times to mix the soluble formazan product and the plate was read spectrophotometrically at 450/650 nm with a Molecular Devices Vmax plate reader.
Raw data was collected from the Softmax Pro 4.6 software and imported into a Microsoft Excel 2003 spreadsheet for analysis by linear curve fit calculations.

[1] = Microsomal assay: stability in human liver microsomes; format: in vitro ADME; conditions: human, liver microsomes, pH 7.4, human liver microsomes, repeated assay (Table 3); read-out: t1/2 (min) Avg ± SD (n = 3)
Experimental: Microsomal Assay. Human liver microsomes (20 mg/mL, pool of 50 individuals) were obtained from Xenotech LLC (Lenexa, Kans.). The incubation mixtures are prepared as follows. Stock solutions (10 mM) solutions of test Compounds 103, 106, 122 and of atazanavir were prepared in DMSO. The 10 mM stock solutions were diluted to 1 mM in acetonitrile (ACN). […] The microsome-test compound mixtures were added to wells of a 2 mL 96-well deep well polypropylene plate in triplicate. The plate was warmed to 37° C. before initiating the reactions by addition of prewarmed NADPH in 0.1 M potassium phosphate buffer, pH 7.4, containing 3 mM MgCl2. The final reaction mixture composition contained: • Liver Microsomes 0.5 mg/mL • NADPH 2 mM • Potassium Phosphate, pH 7.4 100 mM • Magnesium Chloride 3 mM • Test Compound 1.0 μM. The reaction mixtures were incubated at 37° C. and 50 μL aliquots were removed at 0, 3, 7, 12, 20, and 30 minutes and added to shallow-well 96-well plates which contained 50 μL of ice-cold ACN with internal standard to stop the reactions. The plates were stored at −20° C. for 30 minutes, after which 100 μL of water was added to the wells of the plate before centrifugation to pellet precipitated proteins. Supernatants were transferred to another 96-well plate and analyzed for amounts of parent remaining by LC-MS/MS using an Applied Biosystems API 4000 mass spectrometer. […] Data analysis was performed using Microsoft Excel Software. […] The results are shown in FIGS. 2 and 3 and in Table 3, below: […]

[2] = Chimp pharmacokinetics Run A, IV or PO co-dosing of atazanavir and Compounds 114, 120, 122; format: in vivo, chimpanzee; conditions: for concentration at 24 h: concentration detected intact in urine
Experimental: Chimp Pharmacokineties. Run A: A 4 mg/mL solution of atazanavir and each of Compounds 114, 120 and 122 were prepared in 10% DMI (dimethyl isosorbide), 15% EtOH, 35% PG in D5W. Specifically, for each compound, 240 mgs of compound was dissolved in a solution composed of 6 mL of DMI, 9 mL of EtOH and 21 mL PG. Once the compound was fully dissolved, 24 mL of D5W was added and the solution mixed.
Fifty-five mL of each drug solution is then combined and the mixture was sterile filtered using a 0.2 μm filter. This produced 220 mL of a 1:1:1:1 mixture atazanavir:Compound 114:Compound 120:Compound 122. The final concentration of each drug in the solution was 1 mg/mL. Each animal received 50 mL of this solution through either IV or PO routes.
as §1, §2

[3] = chimp A242E, PO, 24 hours, Run A
[4] = chimp A336C, IV, 24 hours, Run A

Structure (SMILES) | concentration detected intact in urine (in vivo) [ng/mL] | concentration at 24 h (in vivo) [ng/mL] | fold less potent in the presence of HSA than in cell culture medium alone (HIV-1RF; 10 mg/mL HSA versus cell culture medium) | EC50 (HIV-1RF; +0.5 mg/mL AAGP) [nM] | EC50 (HIV-1RF; +10 mg/mL HAS) [nM] | EC50 (HIV-1RF; +AAGP + HSA) [nM] | EC50 (HIV-1RF; No Serum Protein Added (cell culture medium)) [nM] | half-life at 1 μM [1] [min] | Ratio of urine concentration, compound:Atazanavir [2, 3] | Ratio of urine concentration, compound:Atazanavir [2, 4] | Ratio of urine concentration, compound:Atazanavir ([2]; chimpanzee, in vivo, iv, 24 h) | concentration detected intact in urine ([2]; chimpanzee, in vivo, iv, 24 h) [ng/mL] | concentration at 24 h ([2]; chimpanzee, in vivo, iv) [ng/mL] | Ratio of urine concentration, compound:Atazanavir ([2]; chimpanzee, in vivo, po, 24 h) | concentration detected intact in urine ([2]; chimpanzee, in vivo, po, 24 h) [ng/mL] | concentration at 24 h ([2]; chimpanzee, in vivo, po) [ng/mL]
[2H]C([2H])([2H])OC(=O)N[C@H](C(=O)NN(Cc1ccc(-c2ccccn2)cc1)C[C@H](O)[C@H](Cc1ccccc1)NC(=O)[C@@H](NC(=O)OC([2H])([2H])[2H])C(C([2H])([2H])[2H])(C([2H])([2H])[2H])C([2H])([2H])[2H])C(C)(C)C [Compound 120, 1,14-Di(methyl-d3)(3S,8S,9S,125)-3-(1,1-dimethylethyl)-12-[(1,1-dimethylethyl)-d9]-8-hydroxy-4,11-dioxo-9-(phenlymethyl)-6-[[4-(2-pyridinyl)phenyl]methyl]-2,5,6,10,13-pentaazatetradecanedioate] | 5030 | 2930 | two- to greater than three-fold less potent | 3 | 1 | 4 | 0.5 | 26.9 ± 1.4 | 2.16 | 1.74 | 1.52 | 3110 | 3030 | 2.15 | 1110 | 1230
[2H]C([2H])([2H])OC(=O)N[C@H](C(=O)N[C@@H](Cc1ccccc1)[C@@H](O)CN(Cc1ccc(-c2ccccn2)cc1)NC(=O)[C@@H](NC(=O)OC)C(C)(C)C)C(C([2H])([2H])[2H])(C([2H])([2H])[2H])C([2H])([2H])[2H] [Compound 114, 1-Methyl-14-(methyl-d3)(3S,8S,9S,12S)-3-(1,1-dimethylethyl)-12-[(1,1-dimethylethyl)-d9]-8-hydroxy-4,11-dioxo-9-(phenylmethyl)-6-[[4-(2-pyridinyl)phenyl]methyl]-2,5,6,10,13-pentaazatetradecanedioate] | 4580 | 2530 |  |  |  |  |  | 31.5 ± 0.8 | 1.8 | 1.5 | 1.3 | 2820 | 2750 | 1.8 | 963 | 1070
